Assay results reported in BindingDB's records for doi:10.1124/jpet.105.086363 (Wyeth, 2005).

How the values were obtained:
[1] = target: D(2) dopamine receptor (Homo sapiens, UniProt P14416)
[2] = target: T1, 5-hydroxytryptamine receptor 1A (Homo sapiens, UniProt P08908)
T1 sequence (P08908 whole entry): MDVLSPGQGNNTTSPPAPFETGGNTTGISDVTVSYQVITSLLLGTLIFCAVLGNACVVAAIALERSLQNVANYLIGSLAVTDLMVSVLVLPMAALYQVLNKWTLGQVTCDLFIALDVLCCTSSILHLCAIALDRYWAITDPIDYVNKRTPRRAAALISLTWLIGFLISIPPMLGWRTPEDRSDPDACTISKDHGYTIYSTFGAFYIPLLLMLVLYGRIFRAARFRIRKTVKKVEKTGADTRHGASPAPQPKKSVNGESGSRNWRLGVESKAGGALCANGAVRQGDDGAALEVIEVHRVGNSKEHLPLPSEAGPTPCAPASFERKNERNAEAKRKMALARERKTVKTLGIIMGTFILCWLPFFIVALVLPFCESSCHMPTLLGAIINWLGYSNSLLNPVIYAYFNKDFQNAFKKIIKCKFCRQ

[3] = target: T2, Alpha-1A adrenergic receptor (Rattus norvegicus, UniProt P43140)
T2 sequence (P43140 whole entry): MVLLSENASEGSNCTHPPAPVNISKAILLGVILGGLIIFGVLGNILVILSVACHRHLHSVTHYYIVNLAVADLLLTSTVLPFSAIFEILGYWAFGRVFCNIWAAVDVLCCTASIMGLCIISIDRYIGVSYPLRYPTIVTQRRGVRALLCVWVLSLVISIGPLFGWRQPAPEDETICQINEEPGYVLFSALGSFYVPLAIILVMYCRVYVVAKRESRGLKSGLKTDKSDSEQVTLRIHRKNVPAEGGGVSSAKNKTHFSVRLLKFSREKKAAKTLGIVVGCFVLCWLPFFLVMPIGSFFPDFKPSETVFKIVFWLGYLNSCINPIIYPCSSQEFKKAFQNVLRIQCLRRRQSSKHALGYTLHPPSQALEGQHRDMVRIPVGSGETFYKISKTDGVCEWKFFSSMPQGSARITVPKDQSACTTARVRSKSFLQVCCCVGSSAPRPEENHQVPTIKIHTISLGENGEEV

[4] = target: T3, D(4) dopamine receptor (Homo sapiens, UniProt P21917)
T3 sequence (P21917 whole entry): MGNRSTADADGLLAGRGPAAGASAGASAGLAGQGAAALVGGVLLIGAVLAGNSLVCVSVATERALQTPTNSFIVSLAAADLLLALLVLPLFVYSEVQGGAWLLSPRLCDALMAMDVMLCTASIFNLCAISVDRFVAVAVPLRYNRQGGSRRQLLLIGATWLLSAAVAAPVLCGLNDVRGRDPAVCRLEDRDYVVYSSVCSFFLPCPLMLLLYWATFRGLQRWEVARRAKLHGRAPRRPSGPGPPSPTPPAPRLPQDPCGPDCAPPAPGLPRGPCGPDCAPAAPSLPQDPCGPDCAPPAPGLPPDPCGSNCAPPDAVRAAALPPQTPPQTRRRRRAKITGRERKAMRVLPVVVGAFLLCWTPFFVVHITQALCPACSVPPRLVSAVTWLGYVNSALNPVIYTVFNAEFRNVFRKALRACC

[5] = target: D(3) dopamine receptor (Homo sapiens, UniProt P35462)
Sequence of D(3) dopamine receptor (P35462 as listed by the source): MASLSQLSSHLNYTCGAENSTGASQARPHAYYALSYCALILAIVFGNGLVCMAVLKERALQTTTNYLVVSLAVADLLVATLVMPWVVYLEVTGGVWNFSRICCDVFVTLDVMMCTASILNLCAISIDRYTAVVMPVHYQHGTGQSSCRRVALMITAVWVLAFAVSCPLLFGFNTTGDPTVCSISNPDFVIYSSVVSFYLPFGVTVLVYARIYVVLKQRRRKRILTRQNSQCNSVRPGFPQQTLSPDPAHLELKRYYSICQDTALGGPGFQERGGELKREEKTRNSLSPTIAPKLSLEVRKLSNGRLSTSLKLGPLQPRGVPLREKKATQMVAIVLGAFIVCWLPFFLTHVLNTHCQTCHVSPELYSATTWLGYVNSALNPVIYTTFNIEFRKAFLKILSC

Sequence of D(2) dopamine receptor (P14416 whole entry): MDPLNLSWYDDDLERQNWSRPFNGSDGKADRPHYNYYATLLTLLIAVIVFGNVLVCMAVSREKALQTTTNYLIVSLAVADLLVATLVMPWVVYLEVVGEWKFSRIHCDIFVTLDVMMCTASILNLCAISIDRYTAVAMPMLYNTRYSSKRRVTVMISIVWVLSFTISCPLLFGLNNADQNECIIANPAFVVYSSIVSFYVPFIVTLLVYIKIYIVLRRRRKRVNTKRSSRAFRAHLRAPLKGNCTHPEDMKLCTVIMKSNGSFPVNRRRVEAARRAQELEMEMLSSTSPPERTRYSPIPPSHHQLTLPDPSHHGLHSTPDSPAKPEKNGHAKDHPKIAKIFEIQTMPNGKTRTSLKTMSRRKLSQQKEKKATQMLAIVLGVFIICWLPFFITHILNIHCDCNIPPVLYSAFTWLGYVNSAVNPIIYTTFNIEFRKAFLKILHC

## C[C@H](CN(C(=O)c1ccc(C#N)cc1)c1ccccn1)N1CCN(c2cccc3c2OCCO3)CC1
[1]
  Ki: 1550 nM
[2]
  Ki: 4.5 nM
[3]
  Ki: 248 nM
[4]
  Ki: 98 nM
[5]
  Ki: 320 nM
